Two compounds from patent publication US6787315B2, “Methods for identifying ligand binding sites in a biomolecule” (priority 2001, dated 2004) can be followed below.

The test system of test [1] is modified 16S RNA (5′-PS-A1492; 3′-phosphorothioate at A1492, C12O6 PEG mass tag). Briefly: ESI-FT-ICR MS ligand binding to 27-mer 16S RNA modified at A1492. Also noted: species or system E. coli. On the procedure: (§1) The following examples illustrate preferred embodiments of the present invention using mass spectrometry. Experiments were performed using a 7.0 Tesla Fourier transform ion cyclotron resonance (FT-ICR) mass spectrometer with an electrospray ionization source operating in the negative mode. A −3000 V difference was employed between the spray tip and the inlet capillary to generate the electrospray. Samples were introduced at a flow rate of 1.5 uL/min using a Harvard syringe pump and a 50 uL glass syringe. The desolvation of the electrospray droplets was aided by a flow of countercurrent gas at 1 L/min. Ions were accumulated for 1.0 sec in an intermediate hexapole ion storage region at 1.0×10^−5 mbar. Following transfer to the FT-ICR analysis cell, the image current was measured over a mass range of 500-4000 m/z. Typically, a total of 32 transients containing 512 kbytes were summed prior to Fourier transformation. The m/z values were calibrated on the signal from the [M-5H^+]^5− charge state of the free RNA at 1726.509.
An aqueous solution containing 100 mM ammonium acetate buffer (pH 7.0), 33% isopropyl alcohol, gentamicin (1 μM), 16S RNA (5 μM) and a modified 16S RNA (5.5 μM) was prepared. […] The peaks from the complexes formed from the lowest mass form of gentamicin were integrated and ion abundances determined. Fractions of 16S+genta and 5′-PS-A1492+genta complexes were determined to be 0.121 and 0.118±0.01% for the free 16S RNA and 5′-PS-A1492 RNA, respectively.
An aqueous solution containing 100 mM ammonium acetate buffer (pH 7.0), 33% isopropyl alcohol, ribostamycin (1 μM), 16S RNA (5 μM) and a modified 16S RNA (5.5 μM) was prepared. […] The peaks from the complexes formed between ribostamycin and the RNA were integrated and ion abundances determined. Fractions of 16S+ribost and 5′-PS-A1492+ribost complexes were determined to be 0.101 and 0.082±0.005% for the free 16S RNA and 5′-PS-A1492 RNA, respectively.

Test [2] has as its system modified 16S RNA (5′-PS-G1491; 3′-phosphorothioate at G1491, C12O6 PEG mass tag). Description: ESI-FT-ICR MS ligand binding to 27-mer 16S RNA modified at G1491. Also noted: species or system E. coli. The protocol: as §1
An aqueous solution containing 100 mM ammonium acetate buffer (pH 7.0), 33% isopropyl alcohol, gentamicin (1 μM), 16S RNA (5 μM) and a modified 16S RNA (5.5 μM) was prepared. Modified 27-mer 16S RNA contained a 3′-phosphorothioate residue at position G1491 at the position of a G-C base pair (E. coli numbering system) and a C12O6 PEG mass tag off the 5′-hydroxyl group. Mass spectra were obtained using the standard protocol described above. The resulting mass spectra contained identifiable peaks corresponding to free 16S RNA (m/z 1726.5), free modified 16S RNA(5′-PS-G1491; m/z 1779.3), 16S complexed with the three forms of gentamicin present in the sample (16S+genta; m/z 1816-1825), and 16S(5′-PS-G1491) complexed with the three forms of gentamicin (5′-PS-G1491+genta; m/z 1869-1875). The peaks from the complexes formed from the lowest mass form of gentamicin were integrated and ion abundances determined. Fractions of 16S+genta and 5′-PS-G1491+genta complexes were determined to be 0.127 and 0.140±0.01% for the free 16S RNA and 5′-PS-G1491 RNA, respectively.
An aqueous solution containing 100 mM ammonium acetate buffer (pH 7.0), 33% isopropyl alcohol, ribostamycin (1 μM), 16S RNA (5 μM) and a modified 16S RNA (5.5 uM) was prepared. Modified 27 mer 16S RNA contained a 3′-phosphorothioate residue at position G1491 at the position of a G-C base pair (E. coli numbering system) and a C12O6 PEG mass tag off the 5′-hydroxyl group. […] The peaks from the complexes formed between ribostamycin and the RNA were integrated and ion abundances determined. Fractions of 16S+ribost and 5′-PS-G1491+ribost complexes were determined to be 0.105 and 0.100±0.005% for the free 16S RNA and 5′-PS-G1491 RNA, respectively.

In the case of gentamicin, the “Amount of 5′-PS-A1492+genta as % of the amount of 16S+genta” value in test [1] (Example 6: gentamicin 1 μM) is reported as 97%. For the same compound, the “Fraction of 5′-PS-A1492+genta complex” value in test [1] (Example 6: gentamicin 1 μM (lowest mass form integrated), 16S RNA 5 μM with 5′-PS-A1492 RNA 5.5 μM, 100 mM ammonium acetate pH 7.0, 33% isopropyl alcohol) is recorded as 0.118±0.01 fraction (0–1). In addition, the “Amount of 5′-PS-G1491+genta as % of the amount of 16S+genta” value in test [2] (Example 4: gentamicin 1 μM) came to 110%. Besides, in test [2] (Example 4: gentamicin 1 μM (lowest mass form integrated), 16S RNA 5 μM with 5′-PS-G1491 RNA 5.5 μM, 100 mM ammonium acetate pH 7.0, 33% isopropyl alcohol), the “Fraction of 5′-PS-G1491+genta complex” value was 0.140±0.01 fraction (unitless).
With `NC[C@H]1O[C@H](O[C@H]2[C@H](O[C@@H]3O[C@H](CO)[C@@H](O)[C@H]3O)[C@@H](O)[C@H](N)C[C@@H]2N)[C@H](N)[C@@H](O)[C@@H]1O` [ribostamycin], the “Amount of 5′-PS-A1492+ribost as % of the amount of 16S+ribost” value in test [1] (Example 7: ribostamycin 1 μM) stood at 80%. For the same compound, the “Amount of 5′-PS-G1491+ribost as % of the amount of 16S+ribost” value in test [2] (Example 5: ribostamycin 1 μM) came out at 94%. For the same compound, the “Fraction of 5′-PS-G1491+ribost complex” value in test [2] (Example 5: ribostamycin 1 μM, 16S RNA 5 μM with 5′-PS-G1491 RNA 5.5 uM, 100 mM ammonium acetate pH 7.0, 33% isopropyl alcohol) worked out at 0.100±0.005%.
